From patent publication US20190169221A1, “SUBSTITUTED NUCLEOSIDES, NUCLEOTIDES AND ANALOGS THEREOF” (Janssen BioPharma, Inc., priority 2016, published 2019) come the findings set out here.

In assay [1] the test system is Dengue virus type 2 strain New Guinea C (NG-C). Briefly: Dengue viral assay (cytopathic effect, Huh-7.5 cells). The conditions noted are these: read-out: Dengue NGC EC50. In kind it is cell-based. The method, then:
The Dengue virus type 2 strain New Guinea C (NG-C) and the Dengue virus type 4 strain H241 were purchased from ATCC (Manassas, Va.; item numbers VR-1584 and VR-1490, respectively). The Zika virus strain MR766 was purchased from ATCC (item #VR-1838) and the Zika virus strain IbH 30656 was purchased from BEI Resources (Manassas, Va.; item number NR-500066). 24 h prior to dosing, Huh-7.5 cells were plated in 96 well plates at a density of 1.5×10^5/mL in DMEM medium supplemented with 10% fetal bovine serum, 1% HEPES buffer, 1% Penicillin/Streptomycin and 1% non-essential amino acids (all Mediatech, Manassas, Va.). At the day of infection, serially diluted compounds were added to cells and incubated for 24 h. After the end of the 24 h pre-incubation period, cells were infected with either Dengue virus type 2 NG-C, Dengue virus type 4 H241, Zika virus strain MR766 or Zika virus strain IbH 30656. The virus inoculum was selected to cause 80-90% cytopathic effect in four (Zika) to five (Dengue) days. Infected cells were incubated for four to five days at 37° C., 5% CO2. To develop the assay, 100 μL media was replaced with 100 μl CellTiter-Glo® reagent (Promega, Madison, Wis.) and incubated for 10 mins at R.T. Luminescence was measured on a Victor ×3 multi-label plate reader. Potential compound cytotoxicity was determined using uninfected parallel cultures.
Background: Damage to the host cells serves as the signal in cytopathic effect assays.

Assay [2] relates to Human rhinovirus 1B. Briefly: Picornavirus / enterovirus assay, HRV 1B (HeLa-OHIO cells). In kind it is cell-based. The settings on record: read-out: HRV 1B EC50.
The target of assay [3] is human rhinovirus 16 polymerase (HRV16pol) (Human rhinovirus 16, UniProt Q82122). Put plainly: Picornavirus polymerase inhibition assay. In kind it is biochemical. The settings on record: triphosphates, read-out: Viral Polymerase Inhibition IC50 Picornavirus. The method, then: The enzyme activity of human rhinovirus 16 polymerase (HRV16pol) was measured as an incorporation of tritiated NMP into acid-insoluble RNA products. hV16pol assay reactions contained […] recombinant enzyme, 50 nM heteropolymeric RNA, about 0.5 μCi tritiated NTP, 0.1 mM of competing cold NTP, 40 mM Tris-HCl (pH 7.0), […] dithiothreitol and 0.5 mM MgCl2. Standard reactions were incubated for 2.5 h at 30° C., in the presence of increasing concentration of inhibitor. At the end of the reaction, RNA was precipitated with 10% TCA and acid-insoluble RNA products were filtered on a size exclusion 96-well plate. After washing of the plate, scintillation liquid was added and radiolabeled RNA products were detected using standard procedures with a Trilux Microbeta scintillation counter. The compound concentration at which the enzyme-catalyzed rate was reduced by 50% (IC50) was calculated by fitting the data to a non-linear regression (sigmoidal).
Sequence of human rhinovirus 16 polymerase (HRV16pol) (Q82122 1694-2153 limits assumed): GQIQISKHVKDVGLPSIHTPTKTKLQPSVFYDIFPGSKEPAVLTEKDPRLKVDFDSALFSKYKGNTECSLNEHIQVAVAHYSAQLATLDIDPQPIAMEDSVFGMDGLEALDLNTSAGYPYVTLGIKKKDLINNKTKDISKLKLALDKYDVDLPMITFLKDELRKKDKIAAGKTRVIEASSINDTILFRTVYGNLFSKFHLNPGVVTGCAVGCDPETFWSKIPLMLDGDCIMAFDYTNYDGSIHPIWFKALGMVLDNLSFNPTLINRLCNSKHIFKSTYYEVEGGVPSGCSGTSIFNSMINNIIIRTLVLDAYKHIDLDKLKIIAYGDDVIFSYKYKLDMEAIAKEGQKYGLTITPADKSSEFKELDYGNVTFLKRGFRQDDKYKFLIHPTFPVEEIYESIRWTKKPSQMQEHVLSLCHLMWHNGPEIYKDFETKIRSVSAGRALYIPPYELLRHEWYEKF

For assay [4], the target named is Dengue viral polymerase (Dengue virus type 2, UniProt P14340). Briefly: biochemical. The settings on record: triphosphates; read-out: Viral Polymerase Inhibition IC50 Dengue.
Assay [5] has as its target NS5B-BK (Delta-21) (Hepatitis C virus genotype 1b, UniProt P26663). Put plainly: biochemical. Details: species or system HCV.
Where [6] appears, read: Huh7.5, Dengue virus type 2 (NG-C strain).
The mark [7] stands for this setting: Rhinovirus A, HeLa-OHIO cells, 33° C.
Where [8] appears, read: Dengue virus type 2 (NG-C strain).

Read-outs that look alike come from different tables or passages of the source. A value given as a limit tells only on which side of the number the result lay.

Sequence of NS5B-BK (Delta-21) (P26663 2420-2989 limits assumed): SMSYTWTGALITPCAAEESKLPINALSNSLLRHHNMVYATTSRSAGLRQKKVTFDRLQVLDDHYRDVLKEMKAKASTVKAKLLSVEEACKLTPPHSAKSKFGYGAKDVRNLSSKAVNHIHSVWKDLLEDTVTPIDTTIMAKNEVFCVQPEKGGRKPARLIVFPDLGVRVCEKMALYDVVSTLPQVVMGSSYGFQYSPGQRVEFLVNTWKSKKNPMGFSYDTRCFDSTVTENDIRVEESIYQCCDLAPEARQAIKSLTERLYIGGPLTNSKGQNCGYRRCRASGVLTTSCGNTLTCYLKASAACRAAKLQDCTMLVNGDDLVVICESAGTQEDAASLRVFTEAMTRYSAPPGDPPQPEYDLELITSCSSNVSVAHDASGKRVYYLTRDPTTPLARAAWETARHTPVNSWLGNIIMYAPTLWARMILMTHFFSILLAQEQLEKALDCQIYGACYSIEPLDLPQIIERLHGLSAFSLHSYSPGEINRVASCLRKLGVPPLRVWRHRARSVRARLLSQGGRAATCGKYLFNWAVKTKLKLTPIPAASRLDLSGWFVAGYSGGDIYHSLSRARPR

The term EC50 denotes the concentration needed to bring the measured effect to its halfway point. For `C#C[C@]1(O)[C@H](n2cnc3c(N)ncnc32)O[C@](F)(COC(C)=O)[C@H]1OC(C)=O` [Compound 2, ((2S,3S,4R,5R)-3-acetoxy-5-(6-amino-9H-purin-9-yl)-4-ethynyl-2-fluoro-4-hydroxytetrahydrofuran-2-yl)methyl acetate], the concentration giving a half-maximal response (EC50) in assay [1] (setting [6]) and in assay [2] (setting [7]) was less than 3 µM in each case.
Consider `C#C[C@]1(O)[C@H](n2cnc3c(N)ncnc32)O[C@](F)(COC(=O)C(C)C)[C@H]1OC(=O)C(C)C` [Compound 3, (2S,3S,4R,5R)-5-(6-amino-9H-purin-9-yl)-4-ethynyl-2-fluoro-4-hydroxy-2-((isobutyryloxy)methyl)tetrahydrofuran-3-ylisobutyrate], for which the 50% effective concentration (EC50) in assay [1] (setting [6]) and in assay [2] (setting [7]) was less than 3 µM throughout.
On to `C#C[C@@]1(O)[C@H](O)[C@@H](CO)O[C@H]1n1cnc2c(N)nc(F)nc21` [Compound 4, (2R,3R,4R,5R)-2-(6-amino-2-fluoro-9H-purin-9-yl)-3-ethynyl-5-(hydroxymethyl)tetrahydrofuran-3,4-diol], for which the EC50 in assay [1] (setting [6]) was more than 100 µM; in assay [2] (setting [7]), 3 to 30 µM.
`C#C[C@]1(O)[C@H](n2ccc3c(N)ncnc32)O[C@](F)(CO)[C@H]1O` [Compound 6, (2S,3S,4R,5R)-5-(4-amino-7H-pyrrolo[2,3-d]pyrimidin-7-yl)-4-ethynyl-2-fluoro-2-(hydroxymethyl)tetrahydrofuran-3,4-diol]: the EC50 in assay [1] (setting [6]) was 3 to 30 µM; in assay [2] (setting [7]), less than 3 µM.
For `C#C[C@]1(O)[C@H](n2cc(C(N)=O)c3c(N)ncnc32)O[C@](F)(CO)[C@H]1O` [Compound 10, 4-amino-7-((2R,3R,4S,5S)-3-ethynyl-5-fluoro-3,4-dihydroxy-5-(hydroxymethyl)tetrahydrofuran-2-yl)-7H-pyrrolo[2,3-d]pyrimidine-5-carboxamide], the concentration for a half-maximal effect (EC50) was 3 to 30 µM in assay [1] (setting [6]) and more than 100 µM in assay [2] (Rhinovirus A).
Take `C[C@@]1(O)[C@H](O)[C@@H](CO)O[C@H]1n1cnc2c(N)nc(F)nc21` [Compound 16]: the concentration for a half-maximal effect (EC50) in assay [1] (setting [6]) was more than 100 µM; in assay [2] (setting [7]), 3 to 30 µM.
One may read the IC50 as the concentration needed to halve the response being measured. With `C#C[C@@]1(O)[C@H](O)[C@@H](COP(=O)(O)OP(=O)(O)OP(=O)(O)O)O[C@H]1n1cnc2c(N)nc(F)nc21` [Compound 17], the IC50 in assay [3] was less than 3 µM; in assay [4], 3 to 30 µM; in assay [5] it was less than 3 µM.
For the compound `C#C[C@@]1(O)[C@H](O)[C@@H](COP(=O)(O)OP(=O)(O)OP(=O)(O)O)O[C@H]1n1cnc2c(N)nc(N)nc21` [Compound 18], the concentration for half-maximal inhibition (IC50) in assay [3] is less than 3 µM; in assay [4] it was 3 to 30 µM; in assay [5] it was less than 3 µM.
Regarding `C#C[C@]1(O)[C@H](n2ccc3c(N)ncnc32)O[C@](F)(COP(=O)(O)OP(=O)(O)OP(=O)(O)O)[C@H]1O` [Compound 19], the 50% inhibitory concentration (IC50) is less than 3 µM in assay [3], 3 to 30 µM in assay [4] and less than 3 µM in assay [5].
As for `C[C@]1(O)[C@H](n2cnc3c(N)ncnc32)O[C@](F)(COP(=O)(O)OP(=O)(O)OP(=O)(O)O)[C@H]1O` [Compound 20], the IC50 is less than 3 µM in assay [3], 3 to 30 µM in assay [4] and less than 3 µM in assay [5].
Regarding `C[C@]1(F)[C@H](n2cnc3c(N)nc(N)nc32)O[C@](F)(COP(=O)(O)OP(=O)(O)OP(=O)(O)O)[C@H]1O` [Compound 21], the half-inhibitory concentration (IC50) in assay [3] was less than 3 µM; in assay [4] it was 30 to 100 µM; in assay [5], less than 3 µM.
On to `C[C@]1(F)[C@H](n2cnc3c(N)ncnc32)O[C@](F)(COP(=O)(O)OP(=O)(O)OP(=O)(O)O)[C@H]1O` [Compound 22], for which the half-inhibitory concentration (IC50) in assay [3] was less than 3 µM; in assay [4], 3 to 30 µM; in assay [5], less than 3 µM.
As to `C#C[C@@]1(O)[C@H](O)[C@@H](CO)O[C@H]1c1cnc2c(N)ncnn12` [Compound 27, (2S,3R,4R,5R)-2-(4-aminoimidazo[2,1-f][1,2,4]triazin-7-yl)-3-ethynyl-5-(hydroxymethyl)tetrahydrofuran-3,4-diol], the concentration giving a half-maximal response (EC50) in assay [1] (setting [6]) and in assay [2] (setting [7]) was less than 3 µM each time.
For the compound `C#C[C@]1(OC(C)=O)[C@H](n2cnc3c(N)ncnc32)O[C@](F)(COC(C)=O)[C@H]1OC(C)=O` [Compound 34, (2S,3S,4R,5R)-2-(acetoxymethyl)-5-(6-amino-9H-purin-9-yl)-4-ethynyl-2-fluorotetrahydrofuran-3,4-diyldiacetate], the EC50 is less than 3 µM in assay [1] (setting [8]) and less than 3 µM in assay [2] (HeLa-OHIO cells, 33° C.).
Consider `C#C[C@]1(O)[C@H](n2cnc3c(N)ncnc32)O[C@](F)(COC(=O)CC)[C@H]1OC(=O)CC` [Compound 36], for which the EC50 in assay [1] (setting [6]) and in assay [2] (setting [7]) was less than 3 µM each time.
As for `C#C[C@]1(O)[C@H](n2cnc3c(N)ncnc32)O[C@](F)(COC(=O)CCC)[C@H]1OC(=O)CCC` [Compound 37, (2S,3S,4R,5R)-5-(6-amino-9H-purin-9-yl)-2-((butyryloxy)methyl)-4-ethynyl-2-fluoro-4-hydroxytetrahydrofuran-3-ylbutyrate], the EC50 in assay [1] (setting [6]) and in assay [2] (setting [7]) was less than 3 µM throughout.
For `C#C[C@]1(OC(=O)CC)[C@H](n2cnc3c(N)ncnc32)O[C@](F)(COC(=O)CC)[C@H]1OC(=O)CC` [Compound 38, (2S,3S,4R,5R)-5-(6-amino-9H-purin-9-yl)-4-ethynyl-2-fluoro-2-((propionyloxy)methyl)tetrahydrofuran-3,4-diyldipropionate], the EC50 in assay [1] (setting [6]) and in assay [2] (setting [7]) was less than 3 µM in each case.
For the compound `C#C[C@]1(O)[C@H](n2cnc3c(N)ncnc32)O[C@](F)(CO)[C@H]1OC(=O)CCCCCCCCC` [Compound 39, (2S,3S,4R,5R)-5-(6-amino-9H-purin-9-yl)-4-ethynyl-2-fluoro-4-hydroxy-2-(hydroxymethyl)tetrahydrofuran-3-yldecanoate], the EC50 in assay [1] (setting [6]) and in assay [2] (setting [7]) was less than 3 µM throughout.
As to `C#C[C@]1(O)[C@H](n2cnc3c(NC(=O)OC(C)(C)C)ncnc32)O[C@](F)(COC(c2ccccc2)(c2ccccc2)c2ccc(OC)cc2)[C@H]1OC(=O)CCCCCCC` [Compound 40], the concentration for a half-maximal effect (EC50) is less than 3 µM in assay [1] (setting [8]) and less than 3 µM in assay [2] (HeLa-OHIO cells, 33° C.).
Turning to `C#C[C@]1(O)[C@H](n2cnc3c(N)ncnc32)O[C@](F)(CO)[C@H]1OC(=O)[C@@H](N)C(C)C` [Compound 41, (2S,3S,4R,5R)-5-(6-amino-9H-purin-9-yl)-4-ethynyl-2-fluoro-4-hydroxy-2-(hydroxymethyl)tetrahydrofuran-3-yl L-valinate], the EC50 in assay [1] (setting [6]) and in assay [2] (setting [7]) was less than 3 µM each time.
Turning to `C#C[C@]1(O)[C@H](n2cnc3c(NC(=O)OC(C)(C)C)ncnc32)O[C@](F)(COC(c2ccccc2)(c2ccccc2)c2ccc(OC)cc2)[C@H]1OC(=O)CCCCCCCCCCC` [Compound 42, (2S,3S,4R,5R)-5-(6-((tert-butoxycarbonyl)amino)-9H-purin-9-yl)-4-ethynyl-2-fluoro-4-hydroxy-2-(((4-methoxyphenyl)diphenylmethoxy)methyl)tetrahydrofuran-3-yl-dodecanoate], the EC50 in assay [1] (setting [6]) and in assay [2] (setting [7]) was less than 3 µM each time.
Take `C#C[C@]1(O)[C@H](n2cnc3c(N)ncnc32)O[C@](F)(COC(=O)CCCCCCCCC)[C@H]1O` [Compound 44, ((2S,3S,4R,5R)-5-(6-amino-9H-purin-9-yl)-4-ethynyl-2-fluoro-3,4-dihydroxytetrahydrofuran-2-yl)methyldecanoate]: the EC50 in assay [1] (setting [6]) and in assay [2] (setting [7]) was less than 3 µM in each case.
Consider `C#C[C@]1(O)[C@H](n2cnc3c(N)ncnc32)O[C@](F)(CO)[C@H]1OC(=O)NCCC` [Compound 49, (2S,3S,4R,5R)-5-(6-amino-9H-purin-9-yl)-4-ethynyl-2-fluoro-4-hydroxy-2-(hydroxymethyl)tetrahydrofuran-3-ylpropylcarbamate], for which the EC50 fell in the range of 30 to 100 µM in assay [1] (setting [8]) and 3 to 30 µM in assay [2] (HeLa-OHIO cells, 33° C.).
With “(2S,3S,4R,5R)-5-(4-amino-5-fluoro-7H-pyrrolo[2,3-d]pyrimidin-7-yl)-4-ethynyl-2-fluoro-2-(hydroxymethyl)tetrahydrofuran-3,4-diol [Compound 31]”, the 50% effective concentration (EC50) was less than 3 µM in assay [1] (setting [8]) and less than 3 µM in assay [2] (HeLa-OHIO cells, 33° C.).
